Laboratory results reported in US11555012B2 (Nimbus Artemis, Inc., priority 2018, dated 2023).
Read-outs that look alike come from different tables or passages of the source.

Key:
ACL [1] = molecular target: T1, ACL (Homo sapiens (Human), UniProt P53396); assay: ADP-Glo Assay
Target sequence in this assay (P53396 other isoform, or with tags, fused parts or gaps isoform P53396-2): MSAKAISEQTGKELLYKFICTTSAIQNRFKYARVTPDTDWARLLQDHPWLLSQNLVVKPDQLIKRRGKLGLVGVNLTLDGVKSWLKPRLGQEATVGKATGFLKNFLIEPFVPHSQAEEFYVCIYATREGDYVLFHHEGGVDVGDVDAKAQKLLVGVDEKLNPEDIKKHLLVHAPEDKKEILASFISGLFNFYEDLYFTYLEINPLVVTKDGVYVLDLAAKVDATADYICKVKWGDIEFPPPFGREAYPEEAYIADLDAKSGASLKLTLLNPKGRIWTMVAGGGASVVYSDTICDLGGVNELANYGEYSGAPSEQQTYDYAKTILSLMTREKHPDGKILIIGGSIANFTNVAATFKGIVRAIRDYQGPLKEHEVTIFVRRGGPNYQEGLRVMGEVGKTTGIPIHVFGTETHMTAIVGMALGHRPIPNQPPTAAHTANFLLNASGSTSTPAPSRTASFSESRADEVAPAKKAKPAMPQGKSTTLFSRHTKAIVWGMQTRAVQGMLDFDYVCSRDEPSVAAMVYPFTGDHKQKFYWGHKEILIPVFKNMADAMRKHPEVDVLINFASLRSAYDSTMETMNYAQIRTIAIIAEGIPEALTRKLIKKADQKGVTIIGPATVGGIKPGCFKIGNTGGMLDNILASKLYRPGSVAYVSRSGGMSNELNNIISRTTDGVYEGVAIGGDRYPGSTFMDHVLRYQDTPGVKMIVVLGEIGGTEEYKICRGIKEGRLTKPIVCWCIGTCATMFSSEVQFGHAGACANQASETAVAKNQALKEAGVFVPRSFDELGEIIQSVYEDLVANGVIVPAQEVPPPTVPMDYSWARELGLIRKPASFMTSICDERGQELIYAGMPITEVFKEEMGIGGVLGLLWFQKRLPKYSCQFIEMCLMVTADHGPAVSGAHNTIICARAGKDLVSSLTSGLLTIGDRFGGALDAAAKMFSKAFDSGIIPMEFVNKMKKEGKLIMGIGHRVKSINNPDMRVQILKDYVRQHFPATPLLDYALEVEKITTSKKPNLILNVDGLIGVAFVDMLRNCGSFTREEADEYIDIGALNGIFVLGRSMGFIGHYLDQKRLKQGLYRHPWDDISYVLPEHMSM

ACL [2] = molecular target: T1, ACL; assay: ACLY-MDH Coupled Assay
Target sequence in this assay (P53396 whole entry, species assumed): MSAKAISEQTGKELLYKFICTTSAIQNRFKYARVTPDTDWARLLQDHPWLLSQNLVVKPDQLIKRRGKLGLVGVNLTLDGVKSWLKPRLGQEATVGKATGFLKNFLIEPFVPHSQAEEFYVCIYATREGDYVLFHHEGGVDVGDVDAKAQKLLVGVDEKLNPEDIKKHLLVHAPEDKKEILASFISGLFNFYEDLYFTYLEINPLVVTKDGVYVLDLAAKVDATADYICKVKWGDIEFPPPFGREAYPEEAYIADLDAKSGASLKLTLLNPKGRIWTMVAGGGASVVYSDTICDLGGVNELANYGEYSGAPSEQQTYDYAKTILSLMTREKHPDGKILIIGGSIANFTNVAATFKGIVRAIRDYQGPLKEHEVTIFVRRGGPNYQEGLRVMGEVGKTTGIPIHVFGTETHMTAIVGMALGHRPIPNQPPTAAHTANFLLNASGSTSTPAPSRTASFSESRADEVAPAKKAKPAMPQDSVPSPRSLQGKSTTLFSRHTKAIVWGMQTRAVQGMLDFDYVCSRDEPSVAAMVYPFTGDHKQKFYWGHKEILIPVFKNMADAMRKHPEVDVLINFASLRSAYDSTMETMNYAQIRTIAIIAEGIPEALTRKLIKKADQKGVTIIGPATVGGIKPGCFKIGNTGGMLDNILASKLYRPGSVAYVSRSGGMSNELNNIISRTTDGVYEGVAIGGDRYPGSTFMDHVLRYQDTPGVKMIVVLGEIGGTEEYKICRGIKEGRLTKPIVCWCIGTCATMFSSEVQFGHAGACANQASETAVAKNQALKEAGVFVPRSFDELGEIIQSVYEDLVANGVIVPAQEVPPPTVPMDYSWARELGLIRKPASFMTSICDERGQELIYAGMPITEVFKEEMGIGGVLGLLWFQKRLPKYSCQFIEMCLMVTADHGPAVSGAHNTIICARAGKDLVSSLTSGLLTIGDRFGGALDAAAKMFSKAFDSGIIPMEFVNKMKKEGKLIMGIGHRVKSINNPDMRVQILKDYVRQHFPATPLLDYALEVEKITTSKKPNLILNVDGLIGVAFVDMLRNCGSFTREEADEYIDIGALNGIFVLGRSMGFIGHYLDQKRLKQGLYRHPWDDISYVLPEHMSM
Protocol: Compounds of the present invention were evaluated in an ACLY Coupled Assay.
The assay protocol for the Coupled Assay (below) was followed:
b) Add 1 μL cpds to 96 assay plate, Test cpd conc: 100/30/10 μM top dose, 3 folds dilution, 10+0+control (control: buffer without ACL+DMSO) points, 1000 rpm for 1 min, incubation at 25° C. for 60 min

HepG2 cells [3] = details: Homo sapiens, HepG2, read-out: ACLY HepG2 14C-Pyruvate Assay serum free IC50 Cholesterol (IC50) [μM]
HepG2 cells [4] = details: Homo sapiens, HepG2, read-out: ACLY HepG2 14C-Pyruvate Assay serum free IC50 FA (IC50) [μM]
Protocol: ACLY HepG2 ^14C-Pyruvate Incorporation Serum-Free Assay (IC50 Fatty
The protocol of the assay (below) was followed:
After 48 hours, change medium with fresh growth medium.
After 18 hours, replaced medium using 0.5 mL fresh medium (5.5 mM Glucose, without FBS, 1% PS, without Pyruvate) containing Compounds or 0.5% DMSO, incubated at 37° C., 5% CO2 for 1 hour.
Add 3 μci of [14C]-pyruvate per well to the cell samples were incubated at 37° C., 5% CO2 for 5 hours.
Medium was removed and placed into a 15 mL centrifuge tube. Add 0.5 mL of 0.1M NaOH to each well and then transfer the cell lysates into the corresponding 15 mL centrifuge tubes. 1.0 mL of EtOH and 0.17 mL 50% KOH were added to 15 mL tubes containing medium and cell suspensions, then shaking tube gently. […] Saponification 15 mL tubes containing medium and cell suspensions were incubated at 90° C. for 1 hour, then cooled to room temperature. […] Cholesterol Extraction 5 mL of petroleum ether was added per tube to extract Cholesterol, shaken vigorously, centrifuged at 1000 rpm for 5 min, and ˜5 mL of the petroleum ether layer was transferred to a new glass tube (18*180 mm). […] Acidification The samples in 15 mL tube were acidified directly with 1 mL concentrated HCl, make sure pH was below 1. […] Fatty Acids Extraction 5 mL of petroleum ether was added per tube, shaken vigorously, centrifuged at 1000 rpm for 5 min, 5 mL of the petroleum ether layer was transferred to the corresponding glass tube. […] Repeat the Step 8 10. Count The petroleum ether extracts were pooled and evaporated to dryness overnight. The residue from the petroleum ether fractions were resuspended in 500 μL of chloroform-hexane (1:1) containing 420 μg of linoleic acid as a carrier. Add 200 μL of resuspending (chloroform-hexane (1:1) containing 168 μg of linoleic acid) to 2 mL Ultima Gold™, after 30 min, count on a scintillation counter.

[5] = read-out: ACL-ADP-Glo (IC50), 3 nM ACL, 15 μM ATP, 3 μM CoA, 300 μM Citrate
[6] = read-out: ACL-MDH Coupled Assay (IC50), 8 nM ACL, 60 μM CoA Na2, 85 μM Citrate, 250 μM ATP, 250 μM NADH

SMILES | IC50 (ACL [1]) [nM] | IC50 (ACL [2]) [nM] | IC50 (HepG2 cells [3]) [µM] | IC50 (HepG2 cells [4]) [µM] | IC50 (ACL [1]; [5]) [nM] | IC50 (ACL [2]; [6]) [nM] | IC50 (ACL [1]; read-out: ACL-ADP-Glo (IC50)) [nM]
O=C(c1cc(Cl)c(O)c(S(=O)(=O)Nc2cc(-c3ccccc3)c(F)cc2F)c1)N1CCC1 [I-98, 5-(azetidine-1-carbonyl)-3-chloro-N-(4,6-difluoro-[1,1′-biphenyl]-3-yl)-2-hydroxybenzenesulfonamide] | – | – | 1 to 5 | > 10 | < 50 | < 50 | –
O=S(=O)(Nc1cc(-c2ccccc2)c(F)cc1F)c1cc(C(F)(F)F)cc(Cl)c1O [I-117, 3-chloro-N-(4,6-difluoro-[1,1′-biphenyl]-3-yl)-2-hydroxy-5-(trifluoromethyl)benzenesulfonamide] | – | – | 1 to 5 | 1 to 10 | < 50 | < 50 | –
O=C(O)c1ccc(-c2cccs2)cc1NS(=O)(=O)c1cc(Cl)cc(Cl)c1 [I-275, 2-((3,5-dichlorophenyl)sulfonamido)-4-(thiophen-2-yl)benzoic acid] | 50 to 500 | 50 to 500 | 1 to 5 | 1 to 10 | – | – | –
COc1ccc(-c2cccs2)cc1NS(=O)(=O)c1cc(Cl)cc(Cl)c1O [I-9, 3,5-dichloro-2-hydroxy-N-(2-methoxy-5-(thiophen-2-yl)phenyl)benzenesulfonamide] | 50 to 500 | 50 to 500 | 1 to 5 | 1 to 10 | – | – | –
COCc1cc(Cl)c(O)c(S(=O)(=O)Nc2cc(-c3ccccc3)c(F)cc2F)c1 [I-91, 3-chloro-N-(2,4-difluoro-5-phenylphenyl)-2-hydroxy-5-(methoxymethyl)benzene-1-sulfonamide] | 50 to 500 | 50 to 500 | 1 to 5 | 1 to 10 | – | – | –
O=S(=O)(Nc1ccc(-c2ccccn2)cc1F)c1cc(Cl)cc(Cl)c1O [I-235, 3,5-dichloro-N-(2-fluoro-4-(pyridin-2-yl)phenyl)-2-hydroxybenzenesulfonamide] | 500 to 20000 | 500 to 30000 | 1 to 5 | > 10 | – | – | –
O=C(O)c1ccc(-c2ccccc2)cc1NS(=O)(=O)c1cc(F)cc(Cl)c1 [I-233, 3-((3-chloro-5-fluorophenyl)sulfonamido)-[1,1′-biphenyl]-4-carboxylic acid] | 500 to 20000 | 50 to 500 | 5 to 20 | 1 to 10 | – | – | –
COC(=O)c1cc(Cl)c(O)c(S(=O)(=O)Nc2cc(C3CC3)c(F)cc2F)c1 [I-127, Methyl 3-chloro-5-[(5-cyclopropyl-2,4-difluorophenyl)sulfamoyl]-4-hydroxybenzoate] | – | – | 1 to 5 | > 10 | < 50 | < 50 | –
O=S(=O)(Nc1cc(-c2ccccc2)c(F)cc1F)c1cc(CO)cc(Cl)c1O [I-90, 3-chloro-N-(2,4-difluoro-5-phenylphenyl)-2-hydroxy-5-(hydroxymethyl)benzene-1-sulfonamide] | 50 to 500 | 50 to 500 | 1 to 5 | > 10 | – | – | –
Cc1cc(C(=O)O)c(NS(=O)(=O)c2cc(Cl)cc(C(F)(F)F)c2)cc1-c1ccccc1 [I-364, 5-((3-chloro-5-(trifluoromethyl)phenyl)sulfonamido)-2-methyl-[1,1′-biphenyl]-4-carboxylic Acid] | 500 to 20000 | 500 to 30000 | 1 to 5 | 1 to 10 | – | – | –
O=C(O)c1c(NS(=O)(=O)c2cc(Cl)cc(Cl)c2)sc2ccccc12 [I-361, 2-((3,5-dichlorophenyl)sulfonamido)benzo[b]thiophene-3-carboxylic acid] | 500 to 20000 | 500 to 30000 | 1 to 5 | > 10 | – | – | –
COC(=O)c1cc(Cl)c(O)c(S(=O)(=O)Nc2cc(-c3ccccc3)c(F)cc2F)c1 [I-65, Methyl 3-chloro-5-[(2,4-difluoro-5-phenylphenyl)sulfamoyl]-4-hydroxybenzoate] | – | – | 5 to 20 | > 10 | – | < 50 | < 50
COc1ccc(-c2ccc(F)cc2)cc1NS(=O)(=O)c1cc(Cl)cc(Cl)c1O [I-6, 3,5-dichloro-N-(4′-fluoro-4-methoxy-[1,1′-biphenyl]-3-yl)-2-hydroxybenzenesulfonamide] | 50 to 500 | 50 to 500 | 1 to 5 | > 10 | – | – | –
O=S(=O)(Nc1cc(-c2ccccc2)c(F)cc1F)c1cc(F)cc(Cl)c1O [I-135, 3-chloro-N-[4,6-difluoro-[1,1-biphenyl]-3-yl]-5-fluoro-2-hydroxybenzene-1-sulfonamide] | 50 to 500 | 50 to 500 | 1 to 5 | 1 to 10 | – | – | –
COC(=O)c1cc(Cl)c(O)c(S(=O)(=O)Nc2cc(C(C)C)c(F)cc2F)c1 [I-198, Methyl 3-chloro-5-(N-(2,4-difluoro-5-isopropylphenyl)sulfamoyl)-4-hydroxybenzoate] | – | – | 1 to 5 | > 10 | < 50 | < 50 | –
COc1ccc(-c2ccccc2)cc1NS(=O)(=O)c1cc(C(=O)N2CCC2)cc(Cl)c1O [I-145, 5-(azetidine-1-carbonyl)-3-chloro-2-hydroxy-N-[4-methoxy-[1,1-biphenyl]-3-yl]benzene-1-sulfonamide] | – | – | 1 to 5 | > 10 | < 50 | < 50 | –

Now from value to compound, other results behind:

IC50 (ACL [1]) [nM] | IC50 (ACL [2]) [nM] | IC50 (HepG2 cells [3]) [µM] | IC50 (HepG2 cells [4]) [µM] | IC50 (ACL [1]; [5]) [nM] | IC50 (ACL [2]; [6]) [nM] | SMILES | IC50 (ACL [1]; read-out: ACL-ADP-Glo (IC50)) [nM]
50 to 500 | 50 to 500 | 1 to 5 | 1 to 10 | – | – | COc1ccc(-c2ccccc2)cc1NS(=O)(=O)c1cc(Br)cc(Cl)c1O [I-21, 5-bromo-3-chloro-2-hydroxy-N-(2-methoxy-5-phenylphenyl)benzene-1-sulfonamide] | –
50 to 500 | < 50 | 1 to 5 | 1 to 10 | – | – | COc1ccc(-c2ccccc2)cc1NS(=O)(=O)c1cc(Cl)cc(Br)c1O [I-20, 3-bromo-5-chloro-2-hydroxy-N-(2-methoxy-5-phenylphenyl)benzene-1-sulfonamide] | –
500 to 20000 | 500 to 30000 | 1 to 5 | 1 to 10 | – | – | COc1cc(-c2ccccc2)ccc1NS(=O)(=O)c1cc(Cl)cc(Cl)c1O [I-13, 3,5-dichloro-2-hydroxy-N-(3-methoxy-[1,1′-biphenyl]-4-yl)benzenesulfonamide] | –
– | – | < 1 | 1 to 10 | < 50 | < 50 | COC(=O)c1cc(Cl)c(O)c(S(=O)(=O)Nc2cc(-c3cccs3)ccc2F)c1 [I-60, Methyl 3-chloro-5-[[2-fluoro-5-(thiophen-2-yl)phenyl]sulfamoyl]-4-hydroxybenzoate] | –
– | – | 5 to 20 | > 10 | < 50 | < 50 | COC(=O)c1cc(Cl)c(O)c(S(=O)(=O)Nc2cc(-c3cc4ccccc4s3)c(F)cc2F)c1 [I-128, Methyl 3-[[5-(1-benzothiophen-2-yl)-2,4-difluorophenyl]sulfamoyl]-5-chloro-4-hydroxybenzoate] | –
500 to 20000 | 500 to 30000 | 1 to 5 | 1 to 10 | – | – | O=S(=O)(Nc1cc(-c2ccccc2)ccc1F)c1cc(Br)ccc1O [I-113, N5-bromo-N-(2-fluoro-5-phenylphenyl)-2-hydroxybenzene-1-sulfonamide] | –
50 to 500 | < 50 | 1 to 5 | > 10 | – | – | O=S(=O)(Nc1cc(-c2ccccc2)ccc1F)c1cc(Br)cc(Cl)c1O [I-34, 5-bromo-3-chloro-N-(2-fluoro-5-phenylphenyl)-2-hydroxybenzene-1-sulfonamide] | –
50 to 500 | 500 to 30000 | 1 to 5 | > 10 | – | – | COC(=O)c1cc(Cl)c(O)c(S(=O)(=O)Nc2cc(-c3cccnc3)ccc2OC)c1 [I-48, Methyl 3-chloro-4-hydroxy-5-(N-(2-methoxy-5-(pyridin-3-yl)phenyl)sulfamoyl)benzoate] | –
50 to 500 | 500 to 30000 | 1 to 5 | > 10 | – | – | O=S(=O)(Nc1cc(-c2ccccc2)ccc1F)c1cccc(Cl)c1O [I-33, 3-chloro-N-(4-fluoro-[1,1′-biphenyl]-3-yl)-2-hydroxybenzenesulfonamide] | –
– | – | 1 to 5 | > 10 | < 50 | < 50 | COC(=O)c1cc(Cl)c(O)c(S(=O)(=O)Nc2cc(-c3ccccc3)cc(F)c2F)c1 [I-111, Methyl 3-chloro-5-[(2,3-difluoro-5-phenylphenyl)sulfamoyl]-4-hydroxybenzoate] | –
50 to 500 | 50 to 500 | 1 to 5 | 1 to 10 | – | – | COc1ccc(-c2ccccc2)cc1NS(=O)(=O)c1c(C)c(Cl)cc(Cl)c1O [I-1, 3,5-dichloro-2-hydroxy-N-(4-methoxy-[1,1′-biphenyl]-3-yl)-6-methylbenzenesulfonamide] | –
– | – | 1 to 5 | 1 to 10 | < 50 | < 50 | COC(=O)c1cc(Cl)c(O)c(S(=O)(=O)Nc2cc(-c3ccccc3)ccc2F)c1 [I-47, Methyl 3-chloro-5-(N-(4-fluoro-[1,1′-biphenyl]-3-yl)sulfamoyl)-4-hydroxybenzoate] | –
– | – | 1 to 5 | > 10 | < 50 | < 50 | CC(C)OC(=O)c1cc(Cl)c(O)c(S(=O)(=O)Nc2cc(-c3ccccc3)c(F)cc2F)c1 [I-86, propan-2-yl 3-chloro-5-[(2,4-difluoro-5-phenylphenyl)sulfamoyl]-4-hydroxybenzoate] | –
50 to 500 | 50 to 500 | 1 to 5 | 1 to 10 | – | – | COc1c(Cl)cc(Cl)cc1S(=O)(=O)Nc1cc(-c2ccccc2)ccc1C(=O)O [I-281, 3-((3,5-dichloro-2-methoxyphenyl)sulfonamido)-[1,1′-biphenyl]-4-carboxylic Acid] | –
